Drawing on US20030162777A1, “Novel N-acylated heterocycles” (Recordati S.A., priority 2001, published 2003), this text covers Ki for 27 compounds.

In the assay the target is T1, human 5HT1A-serotonergic receptor (Homo sapiens, UniProt P08908).
T1 construct: expressed in transfected cells; host or cells: HeLa (human cell line), stably transfected; cell membranes used
T1 sequence (P08908 1-422): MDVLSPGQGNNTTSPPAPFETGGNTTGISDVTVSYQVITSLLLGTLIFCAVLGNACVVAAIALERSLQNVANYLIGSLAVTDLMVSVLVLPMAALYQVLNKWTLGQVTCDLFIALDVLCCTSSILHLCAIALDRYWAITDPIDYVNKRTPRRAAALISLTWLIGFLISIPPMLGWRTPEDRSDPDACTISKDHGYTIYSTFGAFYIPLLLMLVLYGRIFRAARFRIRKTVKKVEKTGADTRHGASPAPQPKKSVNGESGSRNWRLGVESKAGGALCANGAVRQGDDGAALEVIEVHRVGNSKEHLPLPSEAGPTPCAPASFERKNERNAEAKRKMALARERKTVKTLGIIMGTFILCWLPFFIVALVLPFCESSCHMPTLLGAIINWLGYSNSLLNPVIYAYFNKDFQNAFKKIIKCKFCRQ
In words: Radioligand binding to recombinant 5-HT1A receptors. Conditions: [3H]8-OH-DPAT 1 nM, membranes of HeLa cells with human 5-HT1A receptor; Ki from IC50 by Cheng & Prusoff; read-out: Binding affinity for 5HT1A receptors, Ki. The method, then: Genomic clone G-21 coding for the human 5HT1A-serotonergic receptor was stably transfected in a human cell line (HeLa). HeLa cells were grown as monolayers in Dulbecco's modified Eagle medium (DMEM), containing 10% foetal bovine serum, gentamicin ([…]) and 5% carbon dioxide, at 37° C. The cells were detached from the growth flask at 95% confluence by a cell scraper and were lysed in cold 5 mM Tris and 5 mM EDTA buffer (pH 7.4). The homogenates were centrifuged at 40000×g×20 minutes and the pellets were resuspended in a small volume of cold 5 mM Tris and 5 mM EDTA buffer (pH 7.4) and immediately frozen and stored at −70° C. until use. On the day of experiment, the cell membranes were resuspended in incubation buffer: 50 mM Tris HCl (pH 7.4), 2.5 mM MgCl2, […] (Fargin et al., Nature 335, 358-360, 1988). The membranes were incubated in a final volume of 1 ml for 30 minutes at 30° C. with 1 nM [^3H]8-OH-DPAT, in the absence or presence of the test compounds. Non-specific binding was determined in the presence of 10 μM 5-HT. Incubation was stopped by addition of cold Tris-HC 1 buffer and rapid filtration through a 0.2%-polyethyleneimine-pretreated Whatman-GF/B or Schleicher-&-Schuell-GF52 filter.
The affinity of the tested compounds was evaluated as inhibition of specific binding of the radioligand to 5-HT1A receptors (IC50) by using the non-linear curve-fitting program Allfit (De Lean et al., Am. J. Physiol. 235, E97-E102 (1978). The IC50 value was converted to an affinity constant (Ki) by the equation of Cheng & Prusoff (Cheng Y. C., Prusoff W. H., Biochem. Pharmacol. 22, 3099-3108 (1973)).
For “1-(2-Cyclopropylacetyl-1,2,3,4-tetrahydroquinoline-2-ylmethyl)-4-(4-indolyl)piperazine [Example 68A11]”, the Ki amounted to 6.8 nM.

Turning to “1-(2-Ethylbutanoyl-1,2,3,4-tetrahydroquinoline-2-ylmethyl)-4-(4-indolyl)piperazine [Example 24A]”, the inhibition constant (Ki) was 12.9 nM.

As for “1-(2-Furoyl-1,2,3,4-tetrahydroquinoline-2-ylmethyl)-4-(4-indolyl)piperazine [Example 68A13]”, the inhibition constant Ki came to 5.3 nM.

Consider “1-(4-Chloro-2-1-propoxyphenyl)-4-(1-cyclohexanecarbonyl-1,2,3,4-tetrahydroquinoline-2-ylmethyl)piperazine [Example 60A]”, for which the Ki turned out to be 10.1 nM.

Take `O=C(C1CCCCC1)N1c2ccccc2CCC1CN1CCCC(Cc2ccccc2)C1` (single isomer, unassigned) [Example 59, 3-Benzyl-1-(1-cyclohexanecarbonyl-1,2,3,4-tetrahydroquinoline-2-ylmethyl)piperidine]: the inhibitory constant (Ki) worked out at 45.7 nM.

Consider `C[C@@H](NC(=O)N1c2ccccc2CCC1CN1CCN(c2cccc3[nH]ccc23)CC1)c1ccccc1` (single isomer, unassigned) [Example 69A5], for which the inhibitory constant (Ki) amounted to 15.7 nM.

With `O=C(C1CCCCC1)N1c2ccccc2CCC1CN1CCN(c2ccccc2OCC(F)(F)F)CC1` (stereo not drawn) [Example 4, 1-(1-Cyclohexanecarbonyl-1,2,3,4-tetrahydroquinoline-2-ylmethyl)-4-[2-(2,2,2-trifluoroethoxy)phenyl]piperazine], the Ki was 0.7 nM.

On to `O=C(C1CCCCC1)N1c2ccc(F)cc2CCC1CN1CCN(c2ccccc2OCC(F)(F)F)CC1` (stereo not drawn) [Example 5, 1-(1-Cyclohexanecarbonyl-6-fluoro-1,2,3,4-tetrahydroquinoline-2-ylmethyl)-4-[2-(2,2,2-trifluoroethoxy)phenyl]piperazine], for which the Ki stood at 10.7 nM.

On to `COCCC(=O)N1c2ccccc2CCC1CN1CCN(c2ccccc2OCC(F)(F)F)CC1` (stereo not drawn) [Example 7, 1-[1-(3-Methoxypropionyl)-1,2,3,4-tetrahydroquinoline-2-ylmethyl]-4-[2-(2,2,2-trifluoroethoxy)phenyl]piperazine], for which the Ki stood at 31.2 nM.

As for `O=C(CCOCc1ccccc1)N1c2ccccc2CCC1CN1CCN(c2ccccc2OCC(F)(F)F)CC1` (stereo not drawn) [Example 8, 1-[1-(3-Benzyloxypropionyl)-1,2,3,4-tetrahydroquinoline-2-ylmethyl]-4-[2-(2,2,2-trifluoroethoxy)phenyl]piperazine], the Ki was 10.3 nM.

In the case of `O=C(CCOCc1ccccc1)N1c2ccccc2CCC1CN1CCN(c2cccc3[nH]ccc23)CC1` (stereo not drawn) [Example 9, 1-[1-(3-Benzyloxypropionyl)-1,2,3,4-tetrahydroquinoline-2-ylmethyl]-4-(4-indolyl)piperazine], the Ki was 9.6 nM.

As to `COCCC(=O)N1c2ccccc2CCC1CN1CCN(c2cccc3[nH]ccc23)CC1` (stereo not drawn) [Example 11, 1-[1-(3-Methoxypropionyl)-1,2,3,4-tetrahydroquinoline-2-ylmethyl]-4-(4-indolyl)piperazine], the Ki is 40.8 nM.

Regarding `CC(C)OCCC(=O)N1c2ccccc2CCC1CN1CCN(c2cccc3[nH]ccc23)CC1` (stereo not drawn) [Example 12, 1-[1-(3-Isopropoxypropionyl)-1,2,3,4-tetrahydroquinoline-2-ylmethyl]-4-(4-indolyl)piperazine], the Ki amounted to 47.5 nM.

For `O=C(N1CCOCC1)N1c2ccccc2CCC1CN1CCN(c2cccc3[nH]ccc23)CC1` (stereo not drawn) [Example 14, 1-[1-(4-Morpholinocarbonyl)-1,2,3,4-tetrahydroquinoline-2-ylmethyl]-4-(4-indolyl)piperazine], the Ki was 82 nM.

Turning to `Cn1ccc2c(N3CCN(CC4CCc5ccccc5N4C(=O)C4CCCCC4)CC3)cccc21` (stereo not drawn) [Example 15, 1-(1-Cyclohexanecarbonyl-1,2,3,4-tetrahydroquinoline-2-ylmethyl)-4-(1-methyl-4-indolyl)piperazine], the inhibitory constant (Ki) amounted to 8.9 nM.

Consider `CCNC(=O)N1c2ccccc2CCC1CN1CCN(c2cccc3[nH]ccc23)CC1` (stereo not drawn) [Example 20, 1-(1-Ethylaminocarbonyl-1,2,3,4-tetrahydroquinoline-2-ylmethyl)-4-(4-indolyl)piperazine], for which the Ki was 38.6 nM.

As to `O=C(c1ccccc1)N1c2ccccc2CCC1CN1CCN(c2cccc3[nH]ccc23)CC1` (stereo not drawn) [Example 24A4, 1-(1-Benzoyl-1,2,3,4-tetrahydroquinoline-2-ylmethyl)-4-(4-indolyl)piperazine], the inhibition constant Ki came to 9.3 nM.

On to `O=C(C1CCCCC1)N1c2ccc(OC(F)(F)F)cc2CCC1CN1CCN(c2cccc3[nH]ccc23)CC1` (stereo not drawn) [Example 26, 1-(1-Cyclohexanecarbonyl-6-trifluoromethoxy-1,2,3,4-tetrahydroquinoline-2-ylmethyl)-4-(4-indolyl)piperazine], for which the Ki came out at 47.9 nM.

As for `O=C(Nc1ccccc1)N1c2ccccc2CCC1CN1CCN(c2cccc3[nH]ccc23)CC1` (stereo not drawn) [Example 31, 1-(4-Indolyl)-4-(1-phenylaminocarbonyl-1,2,3,4-tetrahydroquinoline-2-ylmethyl)piperazine], the inhibition constant Ki is 12.8 nM.

Consider `Cc1ccc2c(c1)CCC(CN1CCN(c3cccc4[nH]ccc34)CC1)N2C(=O)C1CCCCC1` (stereo not drawn) [Example 32, 1-(1-Cyclohexanecarbonyl-6-methyl-1,2,3,4-tetrahydroquinoline-2-ylmethyl)-4-(4-indolyl)piperazine], for which the Ki was 2.8 nM.

`O=C(N1CCCC1)N1c2ccccc2CCC1CN1CCN(c2cccc3[nH]ccc23)CC1` (stereo not drawn) [Example 33, 1-(4-Indolyl)-4-(1-pyrrolidinecarbonyl-1,2,3,4-tetrahydroquinoline-2-ylmethyl)piperazine]: the Ki stood at 47.7 nM.

On to `O=C(C1CCCCC1)N1c2ccc(Br)cc2CCC1CN1CCN(c2cccc3[nH]ccc23)CC1` (stereo not drawn) [Example 34, 1-(6-Bromo-1-cyclohexanecarbonyl-1,2,3,4-tetrahydroquinoline-2-ylmethyl)-4-(4-indolyl)piperazine], for which the inhibitory constant (Ki) worked out at 18.9 nM.

For the compound `O=C(C1CCCCC1)N1c2ccccc2CCC1CN1CCN(c2ccc(Cl)cc2Cl)CC1` (stereo not drawn) [Example 35A9, 1-(1-Cyclohexanecarbonyl-1,2,3,4-tetrahydroquinoline-2-ylmethyl)-4-(2,4-dichlorophenyl)piperazine], the Ki was 39.6 nM.

Consider `Cc1ccc(F)c(N2CCN(CC3CCc4ccccc4N3C(=O)C3CCCCC3)CC2)c1` (stereo not drawn) [Example 35A12, 1-(1-Cyclohexanecarbonyl-1,2,3,4-tetrahydroquinoline-2-ylmethyl)-4-(2-fluoro-5-methylphenyl)piperazine], for which the Ki came to 9.5 nM.

As for `O=C(C1CCCCC1)N1c2ccccc2CCC1CN1CCN(c2cc(Cl)ccc2Cl)CC1` (stereo not drawn) [Example 35A19, 1-(1-Cyclohexanecarbonyl-1,2,3,4-tetrahydroquinoline-2-ylmethyl)-4-(2,5-dichlorophenyl)piperazine], the inhibitory constant (Ki) was determined as 5.2 nM.

Regarding `O=C(C1CCCCC1)N1c2ccccc2CCC1CN1CCN(c2ncccn2)CC1` (stereo not drawn) [Example 35A21, 1-(1-Cyclohexanecarbonyl-1,2,3,4-tetrahydroquinoline-2-ylmethyl)-4-(2-pyrimidinyl)piperazine], the inhibition constant Ki came out at 18.2 nM.

Regarding `N#Cc1ccc(Cl)cc1N1CCN(CC2CCc3ccccc3N2C(=O)C2CCCCC2)CC1` (stereo not drawn) [Example 35A23, 1-(5-chloro-2-cyanophenyl)-4-(1-cyclohexanecarbonyl-1,2,3,4-tetrahydroquinoline-2-ylmethyl)piperazine], the Ki turned out to be 3.1 nM.
